Experimental data as given in US20110091872A1, “DETECTING TRIAZOLE RESISTANCE IN ASPERGILLUS” (priority 2007, published 2011).
Converted amounts (≈) assume the structure as drawn. Where two headings read alike, the source gives them in different places.

Experiments:
[1] = system: AzRF1-A (KU80 with mutant AzRF1 in autonomously replicating plasmid pRG3-AMA1-AzRF1); experiment: NCCLS M38-A microdilution MIC, mutant AzRF1-A; format: cell-based; conditions: Aspergillus fumigatus; strain AzRF1-A; RPMI 1640, 48 hours, 37° C.
Protocol: (§1) The eight putative C6 transcription factors (TFs) were amplified from a well-characterized itraconazole-resistant strain known to over-express ABC transporters. Nascimento et al. Antimicrob. Agents Chemother. (2003) 47:1719-26. The putative mutant TFs were introduced into a wild type recipient strain and transformants screened for resistance to 10 μg/mlitraconazole. Minimum inhibition concentrations (MICs) were determined by the National Committee for Clinical Laboratory Standards (NCCLS) M38-A microdilution method in RPMI 1640 medium in the presence of 0.01 to 16.0 μg/ml after 48 hours of growth at 37° C.
(§2) Plasmid pRG3-AMA1-AzRF1 was transformed into the triazole susceptible Ku80 strain. The derived mutant AzRF1-A, containing the mutant AzRF1 in an autonomous replicating plasmid was also resistant to triazole drugs (table 2). […] Strain AzRF1-R had restored sensitivity to triazole drugs (table 2).

[2] = system: A. fumigatus wild type strain ATCC 13073; experiment: NCCLS M38-A microdilution MIC, parent strain ATCC 13073; format: cell-based; conditions: Aspergillus fumigatus, ATCC13073, RPMI 1640, 48 hours, 37° C.
Protocol: as §1

[3] = system: AzRF1-M (homologous recombinant AzRF1-mutant of ATCC 13073); experiment: NCCLS M38-A microdilution MIC, mutant AzRF1-M; format: cell-based, Aspergillus fumigatus; conditions: strain AzRF1-M, RPMI 1640, 48 hours, 37° C.
Protocol: as §1, §2

[4] = system: AzRF1-R (derived from AzRF1-A after plasmid eviction); experiment: NCCLS M38-A microdilution MIC, strain AzRF1-R; format: cell-based; conditions: Aspergillus fumigatus, 48 h
Protocol: as §1, §2

[5] = system: KU80 DELTA (triazole susceptible Ku80 strain); experiment: NCCLS M38-A microdilution MIC, parent strain KU80 DELTA; format: cell-based; conditions: Aspergillus fumigatus, 48 h
Protocol: as §1, §2

[6] = system: AzRF1-H (homologous recombinant AzRF1-mutant of KU80); experiment: NCCLS M38-A microdilution MIC, mutant AzRF1-H; format: cell-based; conditions: Aspergillus fumigatus; strain AzRF1-H; RPMI 1640, 48 hours, 37° C.
Protocol: as §1

[7] = system: wild type recipient strain transformed with mutant AzRF1; experiment: NCCLS M38-A microdilution MIC, transformants carrying mutant TF AzRF1; format: cell-based; conditions: Aspergillus fumigatus, 48 h
Protocol: as §1
AzRF1 is a C6 transcription factor that is closely related to Tac1 of C. albicans with 35% sequence identity to the Tac1 proteins (GeneBank accession number ABD85289.1).

[8] = Aspergillus fumigatus, ATCC13073, read-out: MIC

Row | SMILES | MIC [1] | MIC [2] | MIC [3, 8] | MIC [3] | MIC [4] | MIC [5] | MIC [6] | MIC [7]
1 | CCC(C)n1ncn(-c2ccc(N3CCN(c4ccc(OCC5COC(Cn6cncn6)(c6ccc(Cl)cc6Cl)O5)cc4)CC3)cc2)c1=O (stereo not shown) [ITRACONAZOLE, itraconazole] | > 16 µg/mL | 0.25 µg/mL (≈ 0.354 µM) | > 16 µg/mL | >16.0 µg/mL | > 16 µg/mL | 0.25 µg/mL (≈ 0.354 µM) | > 16 µg/mL | > 16 µg/mL
2 | C[C@@H](c1ncncc1F)[C@](O)(Cn1cncn1)c1ccc(F)cc1F [VORICONAZOLE, voriconazole] | > 8 µg/mL | 0.06 µg/mL (≈ 0.172 µM) | > 8 µg/mL | >8.0 µg/mL | > 8 µg/mL | 0.06 µg/mL (≈ 0.172 µM) | > 8 µg/mL | > 8 µg/mL
